# Source: patent publication US20260345524A1, “TARGETING KDM2A TO ENHANCE IMMUNE RESPONSIVENESS TO CANCERS” (The Board of Trustees of the Leland Stanford Junior …, priority 2023, published 2026)
# pIC50: −log10 of the molar value.
# Experiments:
# [1] = tested on: NSD1-inhibited MOC1 tumors; assay: Luciferase expressing MOC1 tumors, EZH2 inhibitor treatment, bioluminescence imaging; assay type: in vivo, mouse (B6 wild type); conditions: 200 mg/kg daily, luminescence day 10
# Method: FIG. 14. Luciferase expressing MOC1 cells, transduced with scramble control shRNA, NSD1 shRNA, or both NSD1 shRNA and KDM2A shRNA, were injected to B6 wild type mice subcutaneously. The mice were treated 24 hours later with or without EZH2 inhibitor (EPZ-6438) at a dose of 200 mg/kg daily, with or without anti-PD-1 antibody (200 μg/mouse). Bioluminescence imaging was used to assess tumor burden; quantified luminescence signal on day 10 is shown in photons per second. *p<0.05.
# KDM2A [2] = conditions: cited from earlier work
# methyl transferases = conditions: cited from earlier work
# [3] = tested on: histone acetyl transferases; conditions: cited from earlier work
# [4] = tested on: other JmjC lysine demethylases; conditions: KDM2A/7A versus other JmjC lysine demethylases; cited from earlier work
# [5] = not told; cited from earlier work
# FaDu tumor spheroids = assay: Spheroid T cell infiltration assay, CD19-CAR T cells co-cultured with CD19-expressing tumor spheroids; assay type: cell-based, human; conditions: daminozide 1.5 μM, added the day before T cells; 3 days co-culture
# Text: FIG. 3A-3G. KDM2A inhibition reverses the immune cold phenotype induced by NSD1 inactivation and induces T cell infiltration into the tumor microenvironment. (A) Overview and illustration of experiment workflow. Tumor spheroids were established from HNSCC tumor cells transfected to express truncated CD19 on the cell surface and grown in submerged Matrigel. The spheroids were co-cultured with CD19-CAR-T cells for three days and then isolated for analysis by confocal microscopy. (B) Assessment by qRT-PCR of CXCL9 and CXCL10 expression after CXCL9 or CXCL10 overexpression (OE) in FaDu cells transduced to express shRNA targeting NSD1 (NSD1-sh). (C) Representative images of tumor spheroids after co-cultured with CD19-CAR-T cells for 3 days. Ctrl=vector control; NSD1-sh=shRNA targeting NSD1; CXCL9-OE=overexpression construct for CXCL9; CXCL10-OE=overexpression construct for CXCL10; KDM2A-sh=shRNA targeting KDM2A. Scale bar=50 um. (D) Representative images of tumor spheroids stained with anti-CD3 antibody (red) and DAPI (blue). […] (E) Quantification of CD3+ cells per 100 cells in the spheroids. […] (G) Quantification of CD3^+ cells per 100 cells in the spheroids. […]
# Spheroid T cellinfiltration assay. […] After 3 days of co-culture, the spheroid Matrigel domes were harvested and analyzed by microscopy. […] The stained samples were mounted on glass slides and analyzed by LSM700 confocal microscopy (Zeiss). […]
# KDM2A [6] = conditions: cited from earlier work; remark: listed apart in the source
# CTLA4 = conditions: cited from earlier work
# CTLA-4 = conditions: cited from earlier work
# HNSCC = conditions: human, in vivo; cited from earlier work
# HPV-unrelated HNSCC = assay: neoadjuvant pembrolizumab phase II window-of-opportunity trial (NCT02296684); assay type: in vivo, human
# Method: FIGS. 1A-1D: NSD1 inactivation downregulates the expression of CXCL9 and CXCL10 in HNSCC. RNA expression and genomic sequencing data from a multicenter, phase II, window-of-opportunity trial (NCT02296684) (23) was examined for CXCL9 and CXCL10 expression and NSD1 mutations. In this trial, neoadjuvant pembrolizumab was administered to patients with locally advanced, resectable, HPV-unrelated HNSCC two to three weeks prior to definitive surgical resection. (A) Comparison of CXCL9 and CXCL10 baseline expression to pathologic tumor response (pTR), as defined in (23), to the anti-PD-1 antibody pembrolizumab. Circles represent responders. ▴ A represent non-responders with wild-type NSD1. Gray triangles represent non-responders with mutated NSD1. (B) Tumor histology from the two patients in the trial that had tumors with NSD1 mutations. Histology of NSD wild-type tumors is also shown. […]
# CXCL9 and CXCL10 in human HNSCC datasets. […] The dataset was subsequently analyzed using Seurat (25): The series matrix was loaded into a Seurat object and was filtered to exclude poor quality or dying cells by removing cells with a mitochondrial genome fraction of 0.4 or greater as well as those with a unique feature count of fewer than 200 genes. […] Expression of CXCL9 and CXCL10 was analyzed within samples that had been profiled using whole exome sequencing, such that the NSD1 mutation status was known. […]
molecule,measurement,setting,value
CCN(c1cc(-c2ccc(CN3CCOCC3)cc2)cc(C(=O)NCc2c(C)cc(C)[nH]c2=O)c1C)C1CCOCC1 [EPZ-6438],tumor growth in WT mice (EZH2 inhibition),[1],does reduce tumor growth in WT mice but not to the extent that KDM2A inhibition appeared to achieve
CC(=O)N1c2ccccc2[C@@](C#N)(c2ccccc2)[C@@H]1c1cncc(CCCCCCCN2CCCC2)c1 [KDM2A/7A-IN-1],pIC50,KDM2A [2],6.80
same,activity on methyl transferases,methyl transferases,inactive
same,activity on histone acetyl transferases,[3],inactive
same,selectivity over other JmjC lysine demethylases,[4],75 fold
same,cell permeability,[5],cell-permeable
CN(C)NC(=O)CCC(=O)O [daminozide],T cell infiltration into tumor spheroids (CD3+ cells per 100 cells),FaDu tumor spheroids,increased the number of infiltrating T cells into tumor spheroids
same,effect on KDM2A histone demethylation,KDM2A [6],significantly abrogate the effect of KDM2A on histone demethylation
Tremelimumab: fully humanized CTLA4 antibody,toxicity,"CTLA4; 10 mg/kg monthly vs 15 mg/kg every 3 months, phase II",toxicity was doubled
same,sustained plasma level in the majority of responders,CTLA4; at one month,> 30 µg/mL
same,dose at which objective responses were evident,"CTLA4; single antibody infusion, 0.01 mg/kg to 15 mg/kg",≥ 3 mg/kg
ipilimumab: fully humanized CTLA4 antibody,grade III/IV enterocolitis,CTLA-4; 10 mg/kg,~ 15%
same,hepatitis,CTLA-4; additional irAEs,5-10%
same,hypophysitis,CTLA-4; additional irAEs,5%
same,leucopenia,CTLA-4; additional irAEs,< 2%
same,pancreatitis,CTLA-4; additional irAEs,< 2%
same,rash/pruritus,CTLA-4; additional irAEs,> 50%
same,uveitis,CTLA-4; additional irAEs,< 2%
nivolumab: anti-PD-1 antibody,clinical response in recurrent/metastatic HNSCC,HNSCC,"impressive responses in recurrent/metastatic HNSCC, though only in a minority of patients"
pembrolizumab: anti-PD-1 antibody,response of tumors with low CXCL9 or CXCL10 expression,"HPV-unrelated HNSCC; neoadjuvant, two to three weeks prior to surgery",None of the tumors with low CXCL9 or CXCL10 expression exhibited response
same,response of patients with NSD1 inactivating mutations,HPV-unrelated HNSCC; two patients,Both were non-responders
same,clinical response in recurrent/metastatic HNSCC,HNSCC,"impressive responses in recurrent/metastatic HNSCC, though only in a minority of patients"
